Test results from patent US7422846B2, “Natural ligand for orphan G protein coupled receptor GPR86 and methods of use” (Euroscreen S.A, priority 2001, dated 2008).

Target: T1, GPR86 (P2Y13) human receptor (Homo sapiens, UniProt Q9BPV8, T179M)
T1 sequence (Q9BPV8 22-354 T179M): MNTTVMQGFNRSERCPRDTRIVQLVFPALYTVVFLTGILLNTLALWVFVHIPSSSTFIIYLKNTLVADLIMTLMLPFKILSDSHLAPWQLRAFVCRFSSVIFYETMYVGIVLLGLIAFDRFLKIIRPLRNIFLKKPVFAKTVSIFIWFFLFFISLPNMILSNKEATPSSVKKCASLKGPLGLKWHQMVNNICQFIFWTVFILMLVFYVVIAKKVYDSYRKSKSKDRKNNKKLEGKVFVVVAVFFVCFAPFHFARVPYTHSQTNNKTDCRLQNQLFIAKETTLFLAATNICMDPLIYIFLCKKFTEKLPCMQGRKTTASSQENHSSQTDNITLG
Test: Western blot of phosphorylated Erk1 and Erk2 in GPR86-transfected CHO-K1 cells
Format: cell-based
Parameters: expressed in transfected cells
Conditions: for Erk phosphorylation / time of stimulation giving maximal Erk phosphorylation response: 1 μM; for concentration at which a significant effect on Erk phosphorylation was already observed / concentration giving maximal effect on Erk phosphorylation: 5 min stimulation; for concentration giving maximal effect on Erk phosphorylation: 1 nM to 10 μM tested
Method: To investigate changes in the activation status of the MAP kinases Erk1 and Erk2 upon stimulation of the human GPR86 receptor, whole CHO-K1 transfected cell extracts were analysed by Western blotting using a specific antibody for the dually phosphorylated kinases (at Thr^202 and Tyr^204), which are the active forms of Erk. Western Blot Analysis of phosphorylated Erk1 and Erk2 proteins.
GPR86-transfected CHO-K1 cells were seeded at 1.5×10^6 cells/dish. After 24 h, the cells were serum-starved for 2 h in KRH buffer. After stimulation with the agonist, the cells were scraped in 1 ml of PBS pH 7.3 (137 mM NaCl, 2.7 mM KCl, 4.3 mM Na2HPO4.7H2O and 1.4 mM KH2PO4). The cells were recovered by centrifugation and lysed in 150 μl of Laemmli buffer (10% (w/v) glycerol, 5% (v/v) mercaptoethanol, 2.3% (w/v) SDS, 62.5 mM Tris-HCl pH 6.8). The protein concentration was determined using the method of Minamide and Bamburg (27). The same amount of protein for each condition was electrophoresed in a 12% SDS-polyacrylamide gel. Proteins were then transferred overnight at 60 V and 4° C. onto a nitrocellulose membrane using 20 mM Tris, 154 mM glycine, 20% (v/v) methanol as a transfer buffer. Immunodetection was achieved using the enhanced chemiluminescence Western blotting detection system (ECL, Amersham Phammacia Biotech) using a biotinylated-secondary mouse antibody ( 1/25,000). The monoclonal antibody specific for the dually phosphorylated forms of Erk1 and Erk2 (at Thr^202 and Tyr^204) was used at 1/1000-dilution.
In CHO-K1 cells, phosphorylated Erk1 and Erk2 had the predicted molecular mass of 44 and 42 kDa, respectively. […] GPR86-transfected CHO-K1 cells were stimulated during different times or with various concentrations of ADP and 2MeSADP or water (CONT). The effect of 100 ng/ml pertussis toxin (PTx) has been tested at 5 and 30 min in the presence of 1 μM ADP or 2MeSADP. Blotting and immunodetection were achieved as described using the enhanced chemiluminescence Western blotting detection system (ECL, Amersham Pharmacia Biotech).

SMILES: CSc1nc(N)c2ncn([C@@H]3O[C@H](COP(=O)(O)OP(=O)(O)O)[C@@H](O)[C@H]3O)c2n1 [2MeSADP, 2-methylthio-ADP]
- Erk phosphorylation: strong phosphorylation of Erk2
- time of stimulation giving maximal Erk phosphorylation response: 5 min
- concentration at which a significant effect on Erk phosphorylation was already observed: 10 nM
- concentration giving maximal effect on Erk phosphorylation: 1 µM

SMILES: Nc1ncnc2c1ncn2[C@@H]1O[C@H](COP(=O)(O)OP(=O)(O)O)[C@@H](O)[C@H]1O [ADP]
- Erk phosphorylation: strong phosphorylation of Erk2
- time of stimulation giving maximal Erk phosphorylation response: 5 min
- concentration at which a significant effect on Erk phosphorylation was already observed: 10 nM
- concentration giving maximal effect on Erk phosphorylation: 1 µM
